This is an account of results in patent KR20160066169A, “이카리시드 b2를 유효성분으로 함유하는 백모 방지용 및 백반증 개선용 조성물” ((주)아모레퍼시픽, priority 2014, dated 2016).

SMILES strings stand for the structures. Read-outs that look alike come from different tables or passages of the source.

Format in all cases: cell-based
Assay [1] deals with melanocytes (melan-a) [멜라닌 세포(melan-a)]. Briefly: 멜라닌 생성 촉진 효과 시험 (melanin production promoting effect, absorbance at 405 nm). The following applies: 3 days.
The subject of another assay is MITF. Put plainly: 멜라노사이트에서의 MITF 발현 촉진 효과 (western blot, 501mel). The conditions noted are these: for activity at 100 µM / activity at 50 ppm: IBMX 100 μM, icariside B2 50 ppm, negative control (DMSO 0.1%) = 100, read-out: MITF expression relative to negative control. (In general: Immunoblotting shows a protein as a band on a membrane.)
Assay [2] concerns tyrosinase [티로시나제(tyrosinase)]. Briefly: 멜라노사이트에서의 티로시나제 발현 촉진 효과 (western blot, 501mel). The following applies: for activity at 100 µM / activity at 50 ppm: IBMX 100 μM, icariside B2 50 ppm, negative control (DMSO 0.1%) = 100, read-out: tyrosinase expression relative to negative control.

Regarding `CC(C)Cn1c(=O)n(C)c(=O)c2[nH]cnc21` [IBMX, 3-isobutyl-1-methylxanthine, reference compound], the activity at 100 µM is 116% in assay [1] (72 h, IBMX 100 μM, 37℃, negative control (0.1% DMSO) = 100, read-out: ratio of melanin quantity to negative control); 121% with MITF (24 h); 98% in the assay on MITF (48 h); 224% in the assay on MITF (72 h); 160% in assay [2] (24 h); 149% in assay [2] (48 h). In addition, the activity at 100 µM in assay [2] (72 h) is 298%.
With `CC(=O)C=CC12OC1(C)CC(OC1OC(CO)C(O)C(O)C1O)CC2(C)C` (stereo not shown) [이카리시드 B2, icariside B2], in assay [1] (100 ppm vs IBMX 100 μM), the “melanin production promoting effect compared with positive control (result in words)” value is given as “양성대조군보다 높은 멜라닌 생성 촉진 효과”. Further, the activity at 50 ppm in assay [1] (72 h, 50 ppm, 37℃, negative control (0.1% DMSO) = 100, read-out: ratio of melanin quantity to negative control) is 103%; with MITF (24 h), 85%; with MITF (48 h), 107%; with MITF (72 h), 115%; in assay [2] (24 h) it was 126%; in assay [2] (48 h) it was 132%. In addition, in assay [2] (72 h), the activity at 50 ppm amounted to 180%. Further, the activity at 100 ppm in assay [1] (72 h, 100 ppm, 37℃, negative control (0.1% DMSO) = 100, read-out: ratio of melanin quantity to negative control) amounted to 127%. For the same compound, in assay [1], the “melanin production (result in words)” value is recorded as “멜라닌 생성이 늘어났으며”. Besides, in the assay with MITF (50 ppm, 24-72 h), the “MITF protein expression (result in words)” value was “단백질 발현을 상승시킴”. Further, the “tyrosinase protein expression (result in words)” value in assay [2] (50 ppm, 24-72 h) is “단백질 발현을 상승시킴”.
